Measured values from patent publication US12478509B2, “Layered composite for scar treatment and prevention” (THE GOVERNMENT OF THE UNITED STATES AS REPRESENTED BY THE …, priority 2019, dated 2025).

What was measured:
mouse DPT wounds = assay: neutrophil infiltration in mouse DPT burn wounds; assay type: in vivo
[1] = system: IL-1β, IL-2, IL-6, IL-13, G-CSF, and MIP-1α; assay: inflammatory cytokines
p38 MAPK = p38 MAPK activation in TGF-β1 stimulated HDF; assay type: cell-based, human
[2] = system: human dermal fibroblasts (HDF); assay: human dermal fibroblast / myofibroblast studies; assay type: cell-based

Cc1ccc(=O)n(-c2ccccc2)c1 [Pirfenidone, 5-methyl-1-phenyl-2-(1H)-pyridone]
neutrophil infiltration (mouse DPT wounds): decreased
key inflammatory cytokines IL-1β, IL-2, IL-6, IL-13, G-CSF, and MIP-1α [1]: reduced
p38 MAPK activation (p38 MAPK): reduced
HDF transdifferentiation to myofibroblasts [2]: inhibited
collagen deposition and fibrosis-related gene expression [2]: decreased
contractile machinery of activated dermal myofibroblasts [2]: weakened
